What was measured:
Experiment in all cases: radiometric filter-binding kinase assay, Kinase HotSpot
Details in all cases: compound 0.5 µM; ATP 10 µM
NEK7 (human) = NEK7 (human) (UniProt Q8TDX7)
PLK1 (human) = PLK1 (human) (UniProt P53350)
INSRR (human) = INSRR (human) (UniProt P14616)
MAPK13 (human) = MAPK13 (human) (UniProt O15264)
PRKCZ (human) = PRKCZ (human) (UniProt Q05513)
HCK (human) = HCK (human) (UniProt P08631)
MST4 (human) = MST4 (human) (UniProt Q9P289)
CDK7 CCNH MNAT1 (human) = CDK7 CCNH MNAT1 (human) (UniProt P50613+P51948+P51946)
MAPK12 (human) = MAPK12 (human) (UniProt P53778)
GSG2 (human) = GSG2 (human) (UniProt Q8TF76)
WEE1 (human) = WEE1 (human) (UniProt P30291)
CSNK1D (human) = CSNK1D (human) (UniProt P48730)
BMX (human) = BMX (human) (UniProt P51813)
TAOK1 (human) = TAOK1 (human) (UniProt Q7L7X3)
STK11 (human) = STK11 (human) (UniProt Q15831)
STK11 (human), sequence (Q15831 whole entry, looked up): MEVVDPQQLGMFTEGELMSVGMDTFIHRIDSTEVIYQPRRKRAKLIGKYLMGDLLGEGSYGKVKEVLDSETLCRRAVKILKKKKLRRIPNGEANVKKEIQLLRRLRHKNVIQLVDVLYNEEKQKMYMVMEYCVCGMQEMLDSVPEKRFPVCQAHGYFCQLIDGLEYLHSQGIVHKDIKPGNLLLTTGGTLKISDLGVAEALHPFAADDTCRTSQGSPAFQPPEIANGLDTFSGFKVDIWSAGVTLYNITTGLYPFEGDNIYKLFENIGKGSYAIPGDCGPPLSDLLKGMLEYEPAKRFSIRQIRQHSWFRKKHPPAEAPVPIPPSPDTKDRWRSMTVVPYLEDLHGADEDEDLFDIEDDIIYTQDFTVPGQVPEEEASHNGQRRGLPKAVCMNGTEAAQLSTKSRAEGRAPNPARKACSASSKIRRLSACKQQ

WNK2 (human) = WNK2 (human) (UniProt Q9Y3S1)
WNK2 (human), sequence (Q9Y3S1 whole entry, looked up): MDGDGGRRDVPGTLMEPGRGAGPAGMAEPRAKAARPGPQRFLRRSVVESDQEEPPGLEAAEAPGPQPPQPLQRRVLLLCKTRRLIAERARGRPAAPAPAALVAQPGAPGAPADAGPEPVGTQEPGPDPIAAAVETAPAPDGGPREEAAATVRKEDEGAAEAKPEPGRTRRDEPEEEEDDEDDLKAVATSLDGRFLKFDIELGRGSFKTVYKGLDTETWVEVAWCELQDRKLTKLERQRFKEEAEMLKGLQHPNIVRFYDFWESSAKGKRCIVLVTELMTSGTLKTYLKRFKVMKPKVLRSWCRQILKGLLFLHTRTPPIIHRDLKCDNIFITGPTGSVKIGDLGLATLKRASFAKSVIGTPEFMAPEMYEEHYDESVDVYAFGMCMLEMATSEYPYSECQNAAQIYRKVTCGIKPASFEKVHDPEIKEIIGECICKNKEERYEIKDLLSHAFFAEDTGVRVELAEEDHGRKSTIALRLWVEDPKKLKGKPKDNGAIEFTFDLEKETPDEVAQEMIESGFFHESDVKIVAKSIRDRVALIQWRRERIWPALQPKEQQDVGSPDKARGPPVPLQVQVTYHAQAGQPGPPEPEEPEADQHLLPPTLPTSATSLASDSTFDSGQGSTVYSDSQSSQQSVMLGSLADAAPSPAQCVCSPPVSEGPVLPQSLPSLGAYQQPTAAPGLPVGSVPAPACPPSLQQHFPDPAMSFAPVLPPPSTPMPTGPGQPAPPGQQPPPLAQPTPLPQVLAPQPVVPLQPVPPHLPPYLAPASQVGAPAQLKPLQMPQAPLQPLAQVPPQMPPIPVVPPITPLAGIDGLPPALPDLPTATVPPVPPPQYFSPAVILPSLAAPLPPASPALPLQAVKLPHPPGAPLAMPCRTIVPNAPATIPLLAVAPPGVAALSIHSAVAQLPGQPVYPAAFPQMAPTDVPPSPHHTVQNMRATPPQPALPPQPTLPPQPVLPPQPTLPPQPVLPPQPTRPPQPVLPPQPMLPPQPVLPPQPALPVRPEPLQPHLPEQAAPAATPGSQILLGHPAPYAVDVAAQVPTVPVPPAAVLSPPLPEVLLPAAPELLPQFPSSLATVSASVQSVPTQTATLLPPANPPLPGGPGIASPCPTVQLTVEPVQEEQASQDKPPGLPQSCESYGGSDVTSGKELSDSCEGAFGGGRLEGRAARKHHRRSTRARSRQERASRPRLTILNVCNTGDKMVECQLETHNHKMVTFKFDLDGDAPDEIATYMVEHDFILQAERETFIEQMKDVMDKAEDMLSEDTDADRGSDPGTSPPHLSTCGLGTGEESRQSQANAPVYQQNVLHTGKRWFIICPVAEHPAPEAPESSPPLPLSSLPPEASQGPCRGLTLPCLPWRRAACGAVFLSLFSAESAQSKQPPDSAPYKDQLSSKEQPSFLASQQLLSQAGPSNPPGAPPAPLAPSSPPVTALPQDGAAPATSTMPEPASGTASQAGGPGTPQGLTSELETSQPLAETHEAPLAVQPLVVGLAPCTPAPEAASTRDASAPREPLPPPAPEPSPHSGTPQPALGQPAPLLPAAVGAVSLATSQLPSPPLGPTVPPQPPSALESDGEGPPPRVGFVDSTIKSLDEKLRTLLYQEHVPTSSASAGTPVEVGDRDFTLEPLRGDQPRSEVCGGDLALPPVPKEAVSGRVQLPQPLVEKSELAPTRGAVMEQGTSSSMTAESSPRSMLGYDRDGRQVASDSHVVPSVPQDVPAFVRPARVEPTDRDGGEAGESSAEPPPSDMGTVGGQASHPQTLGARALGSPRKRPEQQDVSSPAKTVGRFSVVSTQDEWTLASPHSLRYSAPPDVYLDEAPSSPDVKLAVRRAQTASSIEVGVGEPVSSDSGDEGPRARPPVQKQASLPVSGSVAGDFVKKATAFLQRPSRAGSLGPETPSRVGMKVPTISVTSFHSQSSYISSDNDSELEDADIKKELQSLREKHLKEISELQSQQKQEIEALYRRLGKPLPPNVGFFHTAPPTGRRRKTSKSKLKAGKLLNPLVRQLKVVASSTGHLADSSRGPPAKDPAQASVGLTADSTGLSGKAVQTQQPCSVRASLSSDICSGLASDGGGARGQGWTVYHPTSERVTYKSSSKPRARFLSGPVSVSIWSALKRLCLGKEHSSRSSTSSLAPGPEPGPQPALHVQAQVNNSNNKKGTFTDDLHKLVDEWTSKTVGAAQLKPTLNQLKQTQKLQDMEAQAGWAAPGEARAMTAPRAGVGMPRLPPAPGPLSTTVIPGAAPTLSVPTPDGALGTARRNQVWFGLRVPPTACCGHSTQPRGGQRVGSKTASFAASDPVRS

STK17A (human) = STK17A (human) (UniProt Q9UEE5)
DDR2 (human) = DDR2 (human) (UniProt Q16832)
EPHA8 (human) = EPHA8 (human) (UniProt P29322)
PRKCB1 (human) = PRKCB1 (human) (UniProt P05771)
IKBKE (human) = IKBKE (human) (UniProt Q14164)
CDK4 CCND3 (human) = CDK4 CCND3 (human) (UniProt P30281+P11802)
SGK2 (human) = SGK2 (human) (UniProt Q9HBY8)
SGK2 (human), sequence (Q9HBY8 whole entry, looked up): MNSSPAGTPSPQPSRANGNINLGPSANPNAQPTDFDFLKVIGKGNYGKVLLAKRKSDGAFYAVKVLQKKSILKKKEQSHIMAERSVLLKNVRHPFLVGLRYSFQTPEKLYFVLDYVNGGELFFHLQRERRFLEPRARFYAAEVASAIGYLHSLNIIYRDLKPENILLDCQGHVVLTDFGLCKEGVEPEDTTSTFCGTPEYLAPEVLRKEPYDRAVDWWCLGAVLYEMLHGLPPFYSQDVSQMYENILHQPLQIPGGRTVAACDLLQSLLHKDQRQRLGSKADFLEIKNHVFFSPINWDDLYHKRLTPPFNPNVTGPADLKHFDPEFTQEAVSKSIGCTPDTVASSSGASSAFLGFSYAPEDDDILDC

EPHA7 (human) = EPHA7 (human) (UniProt Q15375)
PKN2 (human) = PKN2 (human) (UniProt Q16513)
MARK4 (human) = MARK4 (human) (UniProt Q96L34)
HIPK2 (human) = HIPK2 (human) (UniProt Q9H2X6)
YES1 (human) = YES1 (human) (UniProt P07947)
DCLK2 (human) = DCLK2 (human) (UniProt Q8N568)
DCLK2 (human), sequence (Q8N568 whole entry, looked up): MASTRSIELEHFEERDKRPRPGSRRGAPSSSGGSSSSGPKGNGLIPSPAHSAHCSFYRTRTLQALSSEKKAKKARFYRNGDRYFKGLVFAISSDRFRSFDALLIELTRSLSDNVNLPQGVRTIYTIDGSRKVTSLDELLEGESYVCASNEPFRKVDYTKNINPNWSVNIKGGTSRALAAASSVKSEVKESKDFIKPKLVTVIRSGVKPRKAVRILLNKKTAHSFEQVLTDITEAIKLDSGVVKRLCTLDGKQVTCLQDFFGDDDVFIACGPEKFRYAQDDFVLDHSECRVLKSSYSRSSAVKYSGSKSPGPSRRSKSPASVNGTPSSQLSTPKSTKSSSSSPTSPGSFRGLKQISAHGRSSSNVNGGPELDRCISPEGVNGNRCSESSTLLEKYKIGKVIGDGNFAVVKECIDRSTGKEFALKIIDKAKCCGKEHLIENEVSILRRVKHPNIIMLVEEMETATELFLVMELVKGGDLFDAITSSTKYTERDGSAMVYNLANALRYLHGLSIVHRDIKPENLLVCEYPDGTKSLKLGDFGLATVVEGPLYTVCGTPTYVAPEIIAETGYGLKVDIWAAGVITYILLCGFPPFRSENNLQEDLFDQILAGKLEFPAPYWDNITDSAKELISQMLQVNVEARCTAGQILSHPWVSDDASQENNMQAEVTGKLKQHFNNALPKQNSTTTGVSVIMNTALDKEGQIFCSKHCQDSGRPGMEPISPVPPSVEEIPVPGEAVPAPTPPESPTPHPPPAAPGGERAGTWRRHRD

SRC (human) = SRC (human) (UniProt P12931)
DMPK (human) = DMPK (human) (UniProt Q09013)
RPS6KA5 KD2 (human) = RPS6KA5 KD2 (human) (UniProt O75582)
BLK (human) = BLK (human) (UniProt P51451)
FGFR3 (human) = FGFR3 (human) (UniProt P22607)
GRK4 (human) = GRK4 (human) (UniProt P32298)
AKT2 (human) = AKT2 (human) (UniProt P31751)
CDK5 CDK5R1 p25 (human) = CDK5 CDK5R1 p25 (human) (UniProt Q00535+Q15078)
TGFBR2 (human) = TGFBR2 (human) (UniProt P37173)
TGFBR2 (human), sequence (P37173 whole entry, looked up): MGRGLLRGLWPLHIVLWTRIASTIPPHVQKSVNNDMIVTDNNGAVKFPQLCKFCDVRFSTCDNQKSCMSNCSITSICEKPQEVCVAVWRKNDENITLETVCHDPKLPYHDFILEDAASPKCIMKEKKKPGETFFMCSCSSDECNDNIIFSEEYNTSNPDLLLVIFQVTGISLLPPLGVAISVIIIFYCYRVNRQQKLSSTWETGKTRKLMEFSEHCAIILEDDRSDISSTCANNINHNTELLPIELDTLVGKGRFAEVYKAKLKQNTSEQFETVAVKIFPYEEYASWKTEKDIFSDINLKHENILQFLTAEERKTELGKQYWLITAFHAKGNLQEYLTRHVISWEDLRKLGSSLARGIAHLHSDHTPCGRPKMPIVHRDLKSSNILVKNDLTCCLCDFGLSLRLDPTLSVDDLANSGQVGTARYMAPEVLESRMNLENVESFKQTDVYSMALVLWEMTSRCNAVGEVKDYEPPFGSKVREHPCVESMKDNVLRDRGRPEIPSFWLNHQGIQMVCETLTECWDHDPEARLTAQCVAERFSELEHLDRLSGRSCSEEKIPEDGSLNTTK

ZAP70 (human) = ZAP70 (human) (UniProt P43403)
FGFR1 (human) = FGFR1 (human) (UniProt P11362)
PAK4 (human) = PAK4 (human) (UniProt O96013)
RPS6KB2 (human) = RPS6KB2 (human) (UniProt Q9UBS0)

MAPK13 (human), sequence (O15264 whole entry, looked up): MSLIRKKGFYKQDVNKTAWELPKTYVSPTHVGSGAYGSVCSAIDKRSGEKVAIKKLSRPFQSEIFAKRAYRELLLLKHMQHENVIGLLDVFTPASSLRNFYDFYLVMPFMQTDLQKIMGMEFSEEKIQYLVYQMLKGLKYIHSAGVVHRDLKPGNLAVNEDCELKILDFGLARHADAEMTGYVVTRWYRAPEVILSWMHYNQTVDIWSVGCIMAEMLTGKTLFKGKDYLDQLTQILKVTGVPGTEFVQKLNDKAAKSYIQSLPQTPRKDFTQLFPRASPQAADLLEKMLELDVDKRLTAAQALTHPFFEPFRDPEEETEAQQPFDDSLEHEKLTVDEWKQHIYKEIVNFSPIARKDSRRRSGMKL

## Nc1ncnc2[nH]nc(Nc3ccc(F)cc3)c12
NEK7 (human)
  residual activity: 97%
PLK1 (human)
  residual activity: 99.9%
INSRR (human)
  residual activity: 96.9%
MAPK13 (human)
  residual activity: 104%
PRKCZ (human)
  residual activity: 109%
HCK (human)
  residual activity: 90.7%
MST4 (human)
  residual activity: 91%
CDK7 CCNH MNAT1 (human)
  residual activity: 98.4%
MAPK12 (human)
  residual activity: 94.2%
GSG2 (human)
  residual activity: 87.7%
WEE1 (human)
  residual activity: 93.9%
CSNK1D (human)
  residual activity: 67.7%
BMX (human)
  residual activity: 89.6%
TAOK1 (human)
  residual activity: 92%
STK11 (human)
  residual activity: 97.1%
WNK2 (human)
  residual activity: 110%
STK17A (human)
  residual activity: 88.1%
DDR2 (human)
  residual activity: 94.2%
EPHA8 (human)
  residual activity: 94%
PRKCB1 (human)
  residual activity: 95.9%
IKBKE (human)
  residual activity: 100%
CDK4 CCND3 (human)
  residual activity: 111%
SGK2 (human)
  residual activity: 96.5%
EPHA7 (human)
  residual activity: 101%
PKN2 (human)
  residual activity: 82%
MARK4 (human)
  residual activity: 99.4%
HIPK2 (human)
  residual activity: 106%
YES1 (human)
  residual activity: 92.9%
DCLK2 (human)
  residual activity: 99.5%
SRC (human)
  residual activity: 89.6%
DMPK (human)
  residual activity: 114%
RPS6KA5 KD2 (human)
  residual activity: 96.7%
BLK (human)
  residual activity: 101%
FGFR3 (human)
  residual activity: 101%
GRK4 (human)
  residual activity: 98.8%
AKT2 (human)
  residual activity: 108%
CDK5 CDK5R1 p25 (human)
  residual activity: 82.5%
TGFBR2 (human)
  residual activity: 101%
ZAP70 (human)
  residual activity: 95.2%
FGFR1 (human)
  residual activity: 91.2%
PAK4 (human)
  residual activity: 104%
RPS6KB2 (human)
  residual activity: 96.8%

## CCN(CC)CCNC(=O)c1c(C)[nH]c(/C=C2\C(=O)Nc3ccc(Cl)cc32)c1C
NEK7 (human)
  residual activity: 99.3%
PLK1 (human)
  residual activity: 105%
INSRR (human)
  residual activity: 4.33%
MAPK13 (human)
  residual activity: 104%
PRKCZ (human)
  residual activity: 104%
HCK (human)
  residual activity: 34.3%
MST4 (human)
  residual activity: 73.2%
CDK7 CCNH MNAT1 (human)
  residual activity: 72.8%
MAPK12 (human)
  residual activity: 96.6%
GSG2 (human)
  residual activity: 82.9%
WEE1 (human)
  residual activity: 94.8%
CSNK1D (human)
  residual activity: 49.7%
BMX (human)
  residual activity: 99.3%
TAOK1 (human)
  residual activity: 65.8%
STK11 (human)
  residual activity: 80.7%
WNK2 (human)
  residual activity: 101%
STK17A (human)
  residual activity: 16.1%
DDR2 (human)
  residual activity: 104%
EPHA8 (human)
  residual activity: 99.5%
PRKCB1 (human)
  residual activity: 98.1%
IKBKE (human)
  residual activity: 29.4%
CDK4 CCND3 (human)
  residual activity: 86.3%
SGK2 (human)
  residual activity: 62.8%
EPHA7 (human)
  residual activity: 67.1%
PKN2 (human)
  residual activity: 84.4%
MARK4 (human)
  residual activity: 7.19%
HIPK2 (human)
  residual activity: 20%
YES1 (human)
  residual activity: 5.29%
DCLK2 (human)
  residual activity: 82.8%
SRC (human)
  residual activity: 26%
DMPK (human)
  residual activity: 102%
RPS6KA5 KD2 (human)
  residual activity: 59%
BLK (human)
  residual activity: 15.8%
FGFR3 (human)
  residual activity: 12.3%
GRK4 (human)
  residual activity: 80.8%
AKT2 (human)
  residual activity: 86.9%
CDK5 CDK5R1 p25 (human)
  residual activity: 95.1%
TGFBR2 (human)
  residual activity: 113%
ZAP70 (human)
  residual activity: 91.2%
FGFR1 (human)
  residual activity: 20.3%
PAK4 (human)
  residual activity: 76.7%
RPS6KB2 (human)
  residual activity: 91.6%
